Test [1] deals with pilocarpine-evoked salivation. The test is described as follows: Inhalation guinea pig salivation assay. It counts as in vivo. On the procedure: Inhalation Guinea Pig Salivation Assay
Guinea pigs (Charles River, Wilmington, Mass.) weighing 200-350 g were acclimated to the in-house guinea pig colony for at least 3 days following arrival. Test compound or vehicle were dosed via inhalation (IH) over a 10 minute time period in a pie shaped dosing chamber (R&S Molds, San Carlos, Calif.). Test solutions were dissolved in sterile water and delivered using a nebulizer filled with 5.0 mL of dosing solution. Guinea pigs were restrained in the inhalation chamber for 30 minutes. During this time, guinea pigs were restricted to an area of approximately 110 sq. cm. […] Upon completion of nebulization, guinea pigs were evaluated at 1.5, 6, 12, 24, 48, or 72 hrs after treatment.
Guinea pigs were anesthetized one hour before testing with an intramuscular (IM) injection of a mixture of ketamine 43.75 mg/kg, xylazine 3.5 mg/kg, and acepromazine 1.05 mg/kg at an 0.88 mL/kg volume. […] Saliva was collected for 10 minutes, at which point the gauze pad was weighed and the difference in weight recorded to determine the amount of accumulated saliva (in mg). The mean amount of saliva collected for animals receiving the vehicle and each dose of test compound was calculated. […] Results were calculated using result means (n=3 or greater). Confidence intervals (95%) were calculated for each dose at each time point using two-way ANOVA. […]

Test [2] has as its target T1, hM3 muscarinic receptor subtype (Homo sapiens, UniProt P20309).
T1 construct: expressed in transfected cells; crude membranes prepared in house
The test is described as follows: Radioligand binding assay ([3H]-NMS displacement). Particulars: CHO cell membranes, [3H]-NMS at 1 nM, Cheng-Prusoff; read-out: Ki value for the M3 muscarinic receptor subtype. On the procedure: A. Membrane Preparation from Cells Expressing hM1, hM2, hM3 and hM4 Muscarinic Receptor Subtypes
CHO cell lines stably expressing cloned human hM1, hM2, hM3 and hM4 muscarinic receptor subtypes, respectively, were grown to near confluency in medium consisting of HAM's F-12 supplemented with 10% FBS and 250 μg/mL Geneticin. The cells were grown in a 5% CO2, 37° C. incubator and lifted with 2 mM EDTA in dPBS. Cells were collected by 5 minute centrifugation at 650×g, and cell pellets were either stored frozen at −80° C. or membranes were prepared immediately. For membrane preparation, cell pellets were suspended in lysis buffer and homogenized with a Polytron PT-2100 tissue disrupter (Kinematica AG; 20 seconds×2 bursts). […] The protein concentration of the membrane suspension was determined by the method described in Lowry, O. et al., […] 193:265 (1951). […]
Radioligand binding assays were performed in 96-well microtiter plates in a total assay volume of 100 μL. […] Filter plates were rinsed three times with wash buffer (10 mM HEPES) to remove unbound radioactivity. […] The plates were then counted in a PerkinElmer Topcount liquid scintillation counter (PerkinElmer Inc., Wellesley, Mass.). Binding data were analyzed by nonlinear regression analysis with the GraphPad Prism Software package (GraphPad Software, Inc., San Diego, Calif.) using the one-site competition model. […]

T1 sequence (P20309 whole entry): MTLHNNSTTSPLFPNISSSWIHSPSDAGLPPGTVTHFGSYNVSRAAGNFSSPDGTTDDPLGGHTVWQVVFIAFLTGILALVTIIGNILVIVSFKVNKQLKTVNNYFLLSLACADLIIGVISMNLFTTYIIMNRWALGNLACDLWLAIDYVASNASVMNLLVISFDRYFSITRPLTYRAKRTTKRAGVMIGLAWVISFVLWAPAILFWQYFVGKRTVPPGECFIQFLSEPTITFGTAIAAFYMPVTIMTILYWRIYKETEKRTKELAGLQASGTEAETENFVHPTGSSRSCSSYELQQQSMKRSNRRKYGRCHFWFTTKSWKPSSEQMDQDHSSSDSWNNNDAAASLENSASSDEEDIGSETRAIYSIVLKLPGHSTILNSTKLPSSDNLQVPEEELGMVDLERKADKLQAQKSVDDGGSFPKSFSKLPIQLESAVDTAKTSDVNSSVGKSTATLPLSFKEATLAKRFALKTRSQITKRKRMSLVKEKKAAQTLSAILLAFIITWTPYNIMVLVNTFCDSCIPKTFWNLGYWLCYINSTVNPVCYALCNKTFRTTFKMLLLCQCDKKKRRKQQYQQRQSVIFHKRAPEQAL

As to `CNCCc1ccc(CCN2CC[C@@H](C(C(N)=O)(c3ccccc3)c3ccccc3)C2)cc1` [Example 2, 2-((S)-1-{2-[4-(2-Methylaminoethyl)phenyl]ethyl}pyrrolidin-3-yl)-2,2-diphenyl-acetamide], the “apparent lung selectivity index (ratio of anti-sialagogue ID50 to bronchoprotective ID50)” value in test [1] is reported as “greater than 15”. In general, Ki refers to a dissociation constant, usually derived from enzyme kinetics or from competition with a known ligand. In the case of `Cc1cnc(CNCCc2ccc(CCN3CC[C@@H](C(C(N)=O)(c4ccccc4)c4ccccc4)C3)cc2)cn1` [Example 16, 2-{(S)-1-[2-(4-{2-[(5-methylpyrazin-2-ylmethyl)amino]ethyl}phenyl)ethyl]pyrrolidin-3-yl}-2,2-diphenylacetamide], the Ki in test [2] turned out to be 110 nM.

The record behind these values is patent US7250414B2, “Diphenylmethyl compounds useful as muscarinic receptor antagonists” (Theravance, Inc., priority 2004, dated 2007).
